Earlier results in article PMC12175978, “First-in-Human Serum Stability Studies of [^177Lu]Lu-AMTG: A Step Toward Improved GRPR-Targeted Radiopharmaceutical Therapy” (Journal of Nuclear Medicine, 2025).
Like-named read-outs stand apart in the source and are kept apart here.

Substance	in vivo serum stability in humans (in words) (in vivo)	in vivo serum stability in humans (in words) (human)
[^177Lu]Lu-DOTATATE	very stable	–
[^177Lu]Lu-PSMA-617	–	very stable
